Drawing on ChEMBL document CHEMBL5390265, “Design, Synthesis, and Pharmacological Evaluation of Multisubstituted Pyrido[4,3-d]pyrimidine Analogues Bearing Deuterated Methylene Linkers as Potent KRASG12D Inhibitors” (J Med Chem, 2023), this text covers IC50 for 15 molecules.

What all share (assay type): functional, cell-based
The subject of assay [1] is ASPC1. Put plainly: Antiproliferative activity against human ASPC1 cells harboring […] assessed as inhibition of cell growth incubated for 5 days by crystal violet staining analysis. The following applies: Homo sapiens, ASPC1, 120 h.
Assay [2] deals with A549. Description: Antiproliferative activity against human A549 cells harboring […] assessed as inhibition of cell growth incubated for 5 days by crystal violet staining analysis. As to conditions: Homo sapiens, A549, 120 h.
The subject of assay [3] is NCI-H1299. Put plainly: Antiproliferative activity against human NCI-H1299 cells harboring KRAS wild type assessed as inhibition of cell growth incubated for 5 days by crystal violet staining analysis. As to conditions: NCI-H1299, 120 h.
Assay [4] deals with AGS. Description: Antiproliferative activity against human AGS cells harboring […] assessed as inhibition of cell growth incubated for 5 days by crystal violet staining analysis. The following applies: Homo sapiens, AGS, 120 h.

The structures appear in SMILES notation.

Take `C#Cc1c(F)ccc2cc(O)cc(-c3ncc4c(N5C[C@H]6CC[C@@H](C5)N6)nc(OC[C@]56CCCN5[C@@H](COC(=O)N5CCS(=O)(=O)CC5)CC6)nc4c3F)c12` (racemic): the IC50 was more than 50 nM in assay [1], more than 5000 nM in assay [2], more than 5 µM in assay [3] and more than 50 nM in assay [4].

Turning to `[2H]C([2H])(Oc1nc(NCC23CCCN2CCC3)c2cnc(-c3cc(O)cc4ccc(F)c(C#C)c34)c(F)c2n1)C12CCCN1CC(=C(F)F)C2` (stereo not given), the IC50 is more than 50 nM in assay [1], more than 5000 nM in assay [2], more than 5 µM in assay [3] and more than 50 nM in assay [4].

Regarding `[2H]C([2H])(Oc1nc(N2C[C@H]3CC[C@@H](C2)N3)c2cnc(-c3cccc4cc(F)c(F)c(C#C)c34)c(F)c2n1)C12CCCN1CC(=C(F)F)C2` (stereo not given in full), the IC50 is more than 50 nM in assay [1], more than 5000 nM in assay [2], more than 5 µM in assay [3] and more than 50 nM in assay [4].

`[2H]C([2H])(Oc1nc(N2C[C@H]3CC[C@@H](C2)N3)c2cnc(-c3cc(O)cc4ccc(F)c(C#C)c34)c(F)c2n1)C12CC(=C)CN1C[C@H](F)C2` (stereo not given in full): the IC50 was 1.6 nM in assay [1], 2160 nM in assay [2], more than 5 µM in assay [3] and 0.8 nM in assay [4].

In the case of `[2H]C([2H])(Oc1nc(N2C[C@H]3CC[C@@H](C2)N3)c2cnc(-c3c(Cl)c(C)cc4[nH]ncc34)c(F)c2n1)C12CCCN1CC(=C(F)F)C2` (stereo not given in full), the IC50 is more than 50 nM in assay [1], more than 5000 nM in assay [2], more than 5 µM in assay [3] and more than 50 nM in assay [4].

Take `[2H]C([2H])(Oc1nc(N2C[C@H]3CC[C@@H](C2)N3)c2cnc(-c3cc(O)cc4ccc(F)c(C#C)c34)c(F)c2n1)C12CC(=C)CN1CC(=C)C2`: the IC50 in assay [1] was 1.3 nM; in assay [2] it was 559 nM; in assay [3] it was 2.01 µM; in assay [4] it was 0.4 nM.

Regarding `[2H]C1([2H])CCC2(C([2H])([2H])Oc3nc(N4C[C@H]5CC[C@@H](C4)N5)c4cnc(-c5cc(O)cc6ccc(F)c(C#C)c56)c(F)c4n3)CC(=C)CN12` (stereo not given in full), the IC50 in assay [1] was 2 nM; in assay [2], 1680 nM; in assay [3], more than 5 µM; in assay [4], 0.8 nM.

In the case of `[2H]C([2H])(Oc1nc(N2CCC(N(C)C)C2)c2cnc(-c3cc(O)cc4ccc(F)c(C#C)c34)c(F)c2n1)C12CCCN1CC(=C(F)F)C2` (stereo not given), the concentration for half-maximal inhibition (IC50) in assay [1] is more than 50 nM; in assay [2] it was more than 5000 nM; in assay [3], more than 5 µM; in assay [4], more than 50 nM.

`[2H]C([2H])(Oc1nc(N[C@H]2CCCC[C@@H]2N(C)C)c2cnc(-c3cc(O)cc4ccc(F)c(C#C)c34)c(F)c2n1)C12CCCN1CC(=C(F)F)C2` (stereo not given in full): the IC50 was more than 50 nM in assay [1], more than 5000 nM in assay [2], more than 5 µM in assay [3] and more than 50 nM in assay [4].

Consider `C#Cc1c(F)ccc2cc(O)cc(-c3ncc4c(N5C[C@H]6CC[C@@H](C5)N6)nc(OCCn5cc(COCC67CCCN6CC(=C)C7)nn5)nc4c3F)c12` (stereo not given in full), for which the IC50 in assay [1] is more than 50 nM; in assay [2], more than 5000 nM; in assay [3], more than 5 µM; in assay [4], more than 50 nM.

As for `C#Cc1c(F)ccc2cc(O)cc(-c3ncc4c(N5C[C@H]6CC[C@@H](C5)N6)nc(N5C[C@@H]6C[C@H](C5)c5cccc(=O)n5C6)nc4c3F)c12`, the IC50 was more than 50 nM in assay [1], more than 5000 nM in assay [2], more than 5 µM in assay [3] and more than 50 nM in assay [4].

Turning to `[2H]C([2H])(Oc1nc(N2C[C@H]3CC[C@@H](C2)N3)c2cnc(-c3cc(O)cc4ccc(F)c(C#C)c34)c(F)c2n1)C12CC(=C)CN1CC(=C(F)F)C2` (stereo not given in full), the IC50 in assay [1] turned out to be 1.1 nM; in assay [2] it was 960 nM; in assay [3], 1.93 µM; in assay [4], 0.6 nM.

Consider `C#Cc1c(F)ccc2cc(O)cc(-c3ncc4c(N5C[C@H]6CC[C@@H](C5)N6)nc(OC[C@]56CCCN5[C@@H](Cn5cc(COCCOC)nn5)CC6)nc4c3F)c12` (racemic), for which the IC50 was more than 50 nM in assay [1], more than 5000 nM in assay [2], more than 5 µM in assay [3] and more than 50 nM in assay [4].

Consider `[2H]C([2H])(Oc1nc(N2C[C@H]3CC[C@@H](C2)N3)c2cnc(-c3cc(O)cc4ccc(F)c(C#C)c34)c(F)c2n1)C12CCCN1CC(=C)C2` (stereo not given in full), for which the IC50 in assay [1] was 3.8 nM; in assay [2], 948 nM; in assay [3], more than 5 µM; in assay [4], 1.1 nM.

Regarding `C#Cc1c(F)ccc2cc(O)cc(-c3ncc4c(N5C[C@H]6CC[C@@H](C5)N6)nc(OCC56CCCN5CC(=C)C6)nc4c3F)c12` (stereo not given in full), the IC50 is 4.6 nM in assay [1], 2220 nM in assay [2], more than 5 µM in assay [3] and 1.4 nM in assay [4].

One may read the IC50 as the concentration that gives 50% inhibition.
